Experimental data: ChEMBL document CHEMBL5038596, “Design, Synthesis, In Vitro and In Vivo Characterization of Selective NKCC1 Inhibitors for the Treatment of Core Symptoms in Down Syndrome” (J Med Chem, 2021)
Activity calls are given as the source filed them. The rule behind the calls is not given here.

How the values were obtained:
[1] = molecular target: T1, Solute carrier family 12 member 2 (Homo sapiens) (UniProt P55011); assay: Inhibition of NKCC1 (unknown origin) transfected in HEK293 cells expressing mbYFPQS plasmid assessed as reduction in Cl- influx at 10 uM incubated for 30 mins by fluorescence multiplate reader analysis; type: cell-based
T1 sequence (whole entry): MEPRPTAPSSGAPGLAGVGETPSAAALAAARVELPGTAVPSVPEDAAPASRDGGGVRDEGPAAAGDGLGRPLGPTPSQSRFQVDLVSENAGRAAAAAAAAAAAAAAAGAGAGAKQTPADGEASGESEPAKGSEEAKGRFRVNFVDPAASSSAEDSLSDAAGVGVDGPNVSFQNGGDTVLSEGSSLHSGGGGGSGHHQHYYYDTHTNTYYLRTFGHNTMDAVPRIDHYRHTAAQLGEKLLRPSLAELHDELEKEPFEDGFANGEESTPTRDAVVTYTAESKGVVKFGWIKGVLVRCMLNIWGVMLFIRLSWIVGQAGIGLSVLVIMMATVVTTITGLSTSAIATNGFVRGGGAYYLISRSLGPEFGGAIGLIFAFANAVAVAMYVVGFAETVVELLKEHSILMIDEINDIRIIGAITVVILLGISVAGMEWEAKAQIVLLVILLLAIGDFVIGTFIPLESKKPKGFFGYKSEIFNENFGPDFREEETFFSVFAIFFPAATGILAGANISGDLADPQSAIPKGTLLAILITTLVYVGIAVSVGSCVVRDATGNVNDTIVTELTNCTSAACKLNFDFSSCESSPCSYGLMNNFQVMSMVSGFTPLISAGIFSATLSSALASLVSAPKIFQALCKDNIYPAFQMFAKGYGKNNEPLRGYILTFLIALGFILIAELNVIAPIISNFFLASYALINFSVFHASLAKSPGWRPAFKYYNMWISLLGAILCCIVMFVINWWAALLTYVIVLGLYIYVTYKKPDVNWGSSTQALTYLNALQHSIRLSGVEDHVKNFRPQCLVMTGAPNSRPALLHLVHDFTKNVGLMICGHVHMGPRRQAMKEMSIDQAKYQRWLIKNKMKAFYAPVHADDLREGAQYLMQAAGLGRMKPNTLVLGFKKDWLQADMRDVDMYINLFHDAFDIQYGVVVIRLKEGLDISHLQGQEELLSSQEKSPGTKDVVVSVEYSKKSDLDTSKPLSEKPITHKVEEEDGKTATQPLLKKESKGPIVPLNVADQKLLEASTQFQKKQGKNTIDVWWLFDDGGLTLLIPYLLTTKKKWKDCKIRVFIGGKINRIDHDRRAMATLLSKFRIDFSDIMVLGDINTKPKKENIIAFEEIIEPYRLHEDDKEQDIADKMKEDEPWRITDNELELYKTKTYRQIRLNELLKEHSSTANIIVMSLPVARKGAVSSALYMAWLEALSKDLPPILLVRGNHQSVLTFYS

[2] = tested on: Mus musculus; assay: Diuretic activity in wild type mouse assessed as increase in urine volume at 0.6 mg/kg, ip measured after 2 hrs; type: functional, organism-based
[3] = tested on: Mus musculus; assay: Cognitive enhancement effect in Ts65Dn mouse assessed as restoration of short-term working memory by measuring number of correct choices at 0.6 mg/kg, ip measured after 1 to 4 weeks by T-maze test; type: functional, organism-based; conditions: time 1-4 weeks
[4] = molecular target: T2, Solute carrier family 12 member 5 (Homo sapiens) (UniProt Q9H2X9); assay: Inhibition of KCC2 (unknown origin) transfected in HEK293 cells assessed a reduction in TI influx at 10 uM incubated for 1 hr by fluorescence based analysis relative to control; type: cell-based
T2 sequence (whole entry): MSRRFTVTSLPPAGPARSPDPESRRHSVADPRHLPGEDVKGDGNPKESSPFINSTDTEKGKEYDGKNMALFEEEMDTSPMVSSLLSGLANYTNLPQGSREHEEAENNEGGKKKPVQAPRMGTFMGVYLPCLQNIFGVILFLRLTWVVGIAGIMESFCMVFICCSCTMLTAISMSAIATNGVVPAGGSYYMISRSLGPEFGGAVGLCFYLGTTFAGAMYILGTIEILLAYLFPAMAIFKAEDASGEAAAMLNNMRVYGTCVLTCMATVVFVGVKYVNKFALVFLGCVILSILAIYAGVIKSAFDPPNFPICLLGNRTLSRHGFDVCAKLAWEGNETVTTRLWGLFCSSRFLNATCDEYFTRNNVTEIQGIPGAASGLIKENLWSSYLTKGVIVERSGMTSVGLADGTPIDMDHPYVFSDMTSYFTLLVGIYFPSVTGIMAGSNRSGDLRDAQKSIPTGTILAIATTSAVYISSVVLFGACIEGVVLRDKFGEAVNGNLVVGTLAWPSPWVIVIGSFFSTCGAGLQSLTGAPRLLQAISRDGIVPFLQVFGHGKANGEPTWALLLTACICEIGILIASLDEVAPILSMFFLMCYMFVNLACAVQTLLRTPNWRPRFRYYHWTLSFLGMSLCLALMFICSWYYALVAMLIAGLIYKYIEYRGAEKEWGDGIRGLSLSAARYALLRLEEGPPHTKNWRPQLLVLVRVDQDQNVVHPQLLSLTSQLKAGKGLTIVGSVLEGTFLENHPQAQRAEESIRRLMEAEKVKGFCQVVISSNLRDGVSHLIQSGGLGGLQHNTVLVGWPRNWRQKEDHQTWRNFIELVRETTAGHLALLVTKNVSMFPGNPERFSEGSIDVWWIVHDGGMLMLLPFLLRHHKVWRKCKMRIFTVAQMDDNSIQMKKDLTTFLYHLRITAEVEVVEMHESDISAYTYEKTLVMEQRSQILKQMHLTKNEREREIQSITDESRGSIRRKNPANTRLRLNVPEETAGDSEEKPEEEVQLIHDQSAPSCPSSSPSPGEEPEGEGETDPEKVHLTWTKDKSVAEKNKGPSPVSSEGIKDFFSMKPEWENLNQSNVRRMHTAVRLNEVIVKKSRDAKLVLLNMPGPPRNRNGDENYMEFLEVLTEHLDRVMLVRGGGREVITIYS

[5] = tested on: Mus musculus; assay: Cognitive enhancement effect in Ts65Dn mouse assessed as rescue of electric shock induced freezing response at 0.6 mg/kg, ip measured after 1 to 4 weeks by contextual fear-conditioning test; type: functional, organism-based; conditions: time 1-4 weeks
[6] = tested on: Mus musculus; assay: Cognitive enhancement effect in Ts65Dn mouse assessed as rescue of poor novel-discrimination ability by measuring increase in time spent in exploring novel object at 0.6 mg/kg, ip measured after 1 to 4 weeks by novel object recognition test; type: functional, organism-based; conditions: time 1-4 weeks
[7] = Toxicity in mouse assessed as reduction in body weight at 0.6 mg/kg, ip administered daily for 3 weeks; type: organism-based; conditions: in vivo, 504 h
[8] = tested on: Mus musculus; assay: Rescue of hyperactivity in Ts65Dn mouse assessed as assessed as reduction in total distance travelled at 0.6 mg/kg, ip measured after 1 to 4 weeks by open field test; type: functional, organism-based; conditions: time 1-4 weeks
[9] = Toxicity in Ts65Dn mouse assessed as reduction in body weight at 0.6 mg/kg, ip administered daily for 3 weeks; type: organism-based; conditions: in vivo, 504 h
[10] = tested on: Mus musculus; assay: Diuretic activity in Ts65Dn mouse assessed as increase in urine volume at 0.6 mg/kg, ip measured after 2 hrs; type: functional, organism-based
[11] = molecular target: T1, Solute carrier family 12 member 2 (Homo sapiens); assay: Inhibition of NKCC1 (unknown origin) transfected in HEK293 cells expressing mbYFPQS plasmid assessed as reduction in Cl- influx at 100 uM incubated for 30 mins by fluorescence multiplate reader analysis; type: cell-based
[12] = Solubility of compound in Cl- free hypotonic solution at pH 7.4 assessed as precipitation at 100 uM measured after 30 mins; type: physicochemical; conditions: buffer, pH 7.4, 0.5 h
[13] = Solubility of compound in assay buffer at pH 7.4 assessed as precipitation at 100 uM measured after 15 mins; type: physicochemical; conditions: pH 7.4, 0.25 h
[14] = tested on: Primary neuron; assay: Inhibition of NKCC1 in mouse primary hippocampal neurons assessed as reduction of Ca2+ uptake at 100 uM incubated for 15 mins by Fluo-4AM dye based fluorescence analysis; type: cell-based

With `CN(C)S(=O)(=O)c1cc(C(=O)O)ccc1NCCCCCC(F)(F)F` the inhibition [1] was “inactive”.
For `CN(C)S(=O)(=O)c1cc(C(=O)O)c(O)cc1NCCCCCCCC(F)(F)F`, the Activity [2] was “inactive”, the Activity [3] was “Active” and the inhibition [4] was “inactive”. The Activity [5] was “Active”, the Activity [6] was “Active” and the inhibition [1] was “inactive”. The Activity [7] was “Non-Toxic”, the Activity [8] was “Active” and the Activity [9] was “Non-Toxic”. For the same compound, the Activity [10] was “inactive”.
In the case of `CCCCCCNc1ccc(C(=O)O)cc1S(=O)(=O)NC`, the inhibition [1] was “inactive” and the inhibition [11] was “inactive”.
With `CCCCCCNc1ccc(C(=O)O)cc1S(N)(=O)=O` the inhibition [1] was “inactive”.
With `CCCCCCCCNc1ccc(C(=O)O)cc1S(N)(=O)=O` the inhibition [1] was “inactive”.
In the case of `CN(C)S(=O)(=O)c1cc(C(=O)O)ccc1NCCCC(F)(F)F`, the inhibition [1] was “inactive”.
For `CCCCCCNc1ccc([N+](=O)[O-])cc1S(=O)(=O)N(C)C`, the inhibition [1] was “inactive”.
In the case of `CCCCNc1ccc([N+](=O)[O-])cc1S(=O)(=O)N(C)C`, the inhibition [1] was “inactive” and the solubility [12] was “Insoluble”.
For `O=C(O)c1ccc(NCCCCCCCC(F)(F)F)c(S(=O)(=O)N2CCCCC2)c1`, the solubility [13] was “Insoluble” and the inhibition [14] was “inactive”.
In the case of `COCCCCCCNc1ccc(C(=O)O)cc1S(=O)(=O)N(C)C`, the inhibition [1] was “inactive” and the inhibition [11] was “inactive”.
For `CCCCNc1ccc([N+](=O)[O-])cc1S(=O)(=O)NC`, the inhibition [1] was “inactive”.
In the case of `CN(C)S(=O)(=O)c1cc(C(=O)O)ccc1NCCC(C)(C)C`, the inhibition [1] was “inactive” and the inhibition [11] was “inactive”.
In the case of `CCCCNc1ccc([N+](=O)[O-])cc1S(N)(=O)=O`, the inhibition [1] was “inactive”.
With `CC(C)(C)CCNc1ccc(C(=O)O)cc1S(N)(=O)=O` the inhibition [1] was “inactive”.
In the case of `CCCCCCNc1ccc(C(=O)O)cc1S(=O)(=O)N(C)C`, the inhibition [1] was “inactive”.
For `CCCCNc1ccc(C(=O)O)cc1S(N)(=O)=O`, the inhibition [1] was “inactive”.
In the case of `COCCCCNc1ccc(C(=O)O)cc1S(=O)(=O)N(C)C`, the inhibition [1] was “inactive”.
For `CN(C)S(=O)(=O)c1cc([N+](=O)[O-])ccc1NCCC(C)(C)C`, the solubility [12] was “Insoluble”.
With `CCCCCCNc1ccc([N+](=O)[O-])cc1S(N)(=O)=O` the inhibition [1] was “inactive”.
For `CN(C)S(=O)(=O)c1cc(C(=O)O)c(OC2CCCC2)cc1NCCCCCCCC(F)(F)F`, the solubility [13] was “Insoluble” and the inhibition [14] was “inactive”.
In the case of `CCCCCCCCNc1ccc([N+](=O)[O-])cc1S(=O)(=O)N(C)C`, the inhibition [1] was “inactive” and the inhibition [11] was “inactive”.
In the case of `O=C(O)c1ccc(NCCCCCCCC(F)(F)F)c(S(=O)(=O)NC2CCCC2)c1`, the solubility [13] was “Insoluble” and the inhibition [14] was “inactive”.
For `CCCCCCCCNc1ccc([N+](=O)[O-])cc1S(=O)(=O)NC`, the inhibition [1] was “inactive” and the inhibition [11] was “inactive”.
For `CCCCNc1cc(C(=O)O)cc(S(N)(=O)=O)c1Oc1ccccc1`, the Activity [2] was “Active” and the Activity [10] was “Active”.
For `O=C(O)c1ccc(NCCCCCCCC(F)(F)F)c(S(=O)(=O)NC2CCCCC2)c1`, the solubility [13] was “Insoluble” and the inhibition [14] was “inactive”.
With `CC(C)(C)CCNc1ccc([N+](=O)[O-])cc1S(N)(=O)=O` the inhibition [1] was “inactive”.
With `CNS(=O)(=O)c1cc(C(=O)O)ccc1NCCC(C)(C)C` the inhibition [1] was “inactive”.
For `CCCCCCCCNc1ccc(C(=O)O)cc1S(=O)(=O)N(C)C`, the inhibition [1] was “inactive”.
